# What was measured:
# [1] = ABTS/PP antioxidant capacity assay; details: for Antioxidant Capacity, n-Value: ABTS•+ radicals scavenged by one molecule of antioxidant, 6 min, 730 nm; for Antioxidant Capacity, n-Value / Antioxidant Capacity, ΔA: mean ± SD; for Antioxidant Capacity, ΔA: absorbance decrease at 730 nm, 6 min incubation at 32 °C, corrected for self-bleaching; for Changes of ΔA and n-values from DHQR (paired Student's t-test): compared with DHQR
# Procedure: To compare the antioxidant capacity of DHQ in different forms, we employed the ABTS/PP assay, as reported by Re et al., with some modifications. In brief, an antioxidant was added to the pre-generated stock solution of radical-cation ABTS^•+, and then, after 6 min incubation in the dark place at 32 °C, the decrease in the absorption at 730 nm was calculated. ABTS^•+ self-bleaching after 6 min was measured in the same conditions without the addition of antioxidants. The initial ABTS^•+ absorbance in the incubation mix before the addition of an antioxidant was adjusted to […]. The stock solution of the radical-cation ABTS^•+ was prepared by the incubation of the ABTS with PP at final concentrations of 7 mM and 2.5 mM, respectively, during 12–16 h in the dark. UV-Vis spectra were obtained on a Cary 100 (Varian, Palo Alto, CA, USA).
# The absorbance decrease ∆A at 730 nm due to inhibition of radical-cation ABTS^•+ was calculated as follows (5):∆A = A0 − A1 − ∆Asb,(5) where A0 and A1 are the ABTS^•+ absorbances at 730 nm, pathlength 1 cm, before and 6 min after the antioxidant addition, respectively. The self-bleaching of radical-cation ABTS^•+ ∆Asb was calculated as the difference between the ABTS^•+ absorbance right after the addition of stock ABTS^•+ to PBS to give absorbance 1.0 ± 0.1 and 6 min later.
# The amount of ABTS^•+ radicals scavenged by one molecule of antioxidant (n-value) was calculated according to the Equation (6):(6) N=CABTS·+/Cantioxidant=ΔA/ε · Cantioxidant, where CABTS^•+ is the concentration of the scavenged ABTS^•+, ε is the extinction at 730 nm 15,000 L·mol^−1·cm^−1, l is the optical pathlength 1 cm, and Cantioxidant is the concentration of the antioxidant.
# [2] = Solubility by European Pharmacopeia (EP) express method; type: physicochemical; details: for solubility: thermodynamic from solid; for solubility / Term by EP: water solubility, ambient conditions, European Pharmacopeia 10.0
# Procedure: Solubility is one of the key parameters to describe the biopharmaceutical characteristics of active pharmaceutical ingredients. There are different ways of solubility determination. One of them is an express method widely used in pharmaceutical science, described in European Pharmacopeia (EP). More accurate data may be obtained by the sedimentation method.
# The analysis was performed in accordance with the pharmacopoeial monograph of European Pharmacopeia 10.0 [52] at ambient conditions.
# [3] = Solubility by sedimentation method (centrifugation, UV spectrometry); type: physicochemical; details: for solubility: water, thermodynamic from solid
# Procedure: Solubility is one of the key parameters to describe the biopharmaceutical characteristics of active pharmaceutical ingredients. There are different ways of solubility determination. One of them is an express method widely used in pharmaceutical science, described in European Pharmacopeia (EP). More accurate data may be obtained by the sedimentation method. […] To determine the concentration of DHQ solutions, UV spectrometry was applied. Three hundred mg of each DHQ sample were dissolved in 10.0 mL of […] and centrifuged for 5 min at 10,000 rpm by centrifuge MiniSpin® (Eppendorf AG, Hamburg, Germany). The analyzed solutions were prepared by dilution of the supernatant 50 μL up to 25 mL with distilled water. The UV spectra were recorded with a Cary-100 (Varian, Palo Alto, CA, USA). The accurate concentrations were calculated using a calibration curve.
# [4] = 300 mg in 10.0 mL, centrifuged 5 min at 10,000 rpm, UV spectrometry of supernatant, mean ± SD
Structure (SMILES),"Antioxidant Capacity, n-Value [1]","Antioxidant Capacity, ΔA [1]",Changes of ΔA and n-values from DHQR (paired Student's t-test) [1],solubility [2] [µg/mL],Term by EP [2],"Solubility, By Sedimentation Method [3, 4] [mg/mL]","Increase of solubility compared with DHQR, sedimentation method [3] [times]","Enhancement of water solubility compared with DHQR, EP method ([2]; compared with DHQR)","solubility [3, 4] [µg/mL]"
O=C1c2c(O)cc(O)cc2O[C@H](c2ccc(O)c(O)c2)[C@H]1O [DHQA],7.13 ± 0.19,0.499 ± 0.014,statistically non-significant changes,1000 to 10000,slightly soluble,2.14 ± 0.06,3.1,–,–
O=C1c2c(O)cc(O)cc2O[C@H](c2ccc(O)c(O)c2)[C@H]1O [DHQE],7.19 ± 0.37,0.504 ± 0.026,statistically non-significant changes,–,soluble,–,4.4,at least 30 fold,3090 ± 90
"O=C1c2c(O)cc(O)cc2OC(c2ccc(O)c(O)c2)C1O (stereo not shown) [DHQR, 2-(3,4-dihydroxyphenyl)-3,5,7-trihydroxy-2,3-dihydro-4H-1-benzopyran-4-one, reference compound]",7.30 ± 0.24,0.511 ± 0.017,–,100 to 1000,very slightly soluble,–,–,–,700 ± 20

# Source: PMC9785474, “Solubility Enhancement of Dihydroquercetin via “Green” Phase Modification” (International Journal of Molecular Sciences, 2022)
